Data taken from patent US20220257633A1, “METHOD OF TREATING AGE-RELATED MACULAR DEGENERATION” (THE PROVOST, FELLOWS, FOUNDATION SCHOLARS, & THE O, priority 2021, published 2022).

System: CD45+CD66b−CD14+CD16+ monocytes
Experiment: Surface CD86 on monocytes by flow cytometry
Assay type: cell-based, human
Conditions: PBMCs treated with MCP-1 for 24 h; CD86 MFI
Protocol: PBMCs were labelled for the investigation of monocytes with the following fluorochrome-labelled antibodies: anti-CD16 (3G8) anti-CD86 (FM95) anti-CD45 (2D1); anti-CD66b (G10F5); CD14 (Tuk4); CD80 (2D10); (Biolegend or Miltenyi). Each staining well contained 4×10^5 cells; cells were stained with LIVE/DEAD Aqua (Molecular Probes) followed by staining for 20 min on ice, washed, and analyzed by flow cytometry immediately. Flow cytometry was carried out on a BD LSR Fortessa cell analyzer and analyzed using FlowJo software (Tree Star).

MCP-1: chemokine monocyte chemoattractant protein CCL2/MCP-1
increase of CD86 membrane expression: ~1.4 fold
